Consider eleven compounds from patent US20230114728A1 (Venatorx Pharmaceuticals, Inc., priority 2019, published 2023).

Assay [1] in a line: Bocillin-FL fluorescence polarization competition binding assay, A. baumannii PBP3. To be noted: fluorescence polarization competition binding assay using Bocillin-FL; column 3; read-out: 4. baumannii PBP1a Potency. A digest of the protocol: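 A. baumannii PBP2 (2.5 μM) and PBP3 (0.2 μM) were run in 25 mM Tris pH 8.0 buffer with Tween 20; E. coli PBP3 (1.5 μM) and N. gonorrhoeae PBP2 ([…]) in 50 mM Hepes pH 8.0 buffer.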
In general terms: Fluorescence polarisation rises when a labelled molecule tumbles more slowly, as on binding a larger partner.

The test system of assay [2] is A. baumannii CDC-0045 producing TEM-1D, OXA-23, and OXA-69. Nature of the assay: Broth microdilution MIC in iron-depleted CAMHB (IDM). It counts as cell-based. To be noted: Acinetobacter baumannii, read-out: Minimum Inhibitory Concentration, CDC-0045.
In a further assay the target is A. baumannii PBP1a (Acinetobacter baumannii, UniProt A0ABX6CK30). The experiment in a line: Bocillin-FL fluorescence polarization competition binding assay, A. baumannii PBP1a. To be noted: fluorescence polarization competition binding assay using Bocillin-FL; column 1; read-out: A. baumannii PBP1a Potency. An excerpt: (§1) Example I: Experimental Method for Penicillin-Binding Protein Binding Assays with Bocillin-FL Via Fluorescence Polarization
(§2) To determine the ability of boronic acid-based test PBP inhibitors to bind Penicillin Binding Proteins (PBPs), Bocillin-FL (fluorescently-labeled penicillin V; ThermoFisher Scientific) was used in a fluorescence polarization (FP) competition binding assay to assess inhibitor binding to PBP2, PBP3 or PBP4 from Escherichia coli (K12), PBP3 from Pseudomonas aeruginosa (PA01), PBP1a, PBP2 and PBP3 from Acinetobacter baumannii (ATCC 19606), and PBP2 from Neiserria gonorrheae (FA19). PBPs were cloned and purified as described previously (E. coli PBPs, King, D. T, et al., ACS Infectious Diseases 2015, 1, 175-184; P. aeruginosa PBP3, Han et. al., PNAS 2010, 107 (51), 22002-22007; A. baumannii PBPs, Penwell et. al., Antimicrob. Agents Chemother. 2015, 59 (3), 1680-1689; N. gonorrhoeae PBP2, Singh et. al., J Biol. Chem. 2019, 294 (38), 14020-14032). To establish assay conditions for competition binding, enzyme titration/saturation binding experiments were initially performed. Bocillin-FL was prepared at 0.2 μM in a buffer comprised of 50 mM Hepes (pH 8.0), 300 mM NaCl and 5% (v/v) glycerol for reactions with E. coli, P. aeruginosa and N. gonorrhoeae PBPs, and 25 mM Tris (pH 8.0), 200 mM NaCl and 10% (v/v) glycerol and 0.005% (v/v) Tween 20 for reactions with A. baumannii PBPs. Saturation binding was performed by mixing 40 μl of PBP solutions ranging in concentrations from 0-24 μM with 40 μl of the 0.2 μM Bocillin-FL solution, in individual wells of a black 384-well microplate. FP was measured immediately upon mixing (Excitation, 490 nm; Emission, 520 nm; g-factor, 0.96), using a Cytation3 (BioTek) microplate reader and measured continuously for up to 120 minutes. […] The competition binding assay (80 μl final volume) was validated using beta-lactams and PBPs at final concentrations of: 1.5 μM, E. coli PBP3; 0.75 μM, P. aeruginosa PBP3; 1 μM A. baumannii PBP1a; 2.5 μM A. baumannii PBP2; 0.2 μM A. baumannii PBP3; and […] N. gonorrhoeae PBP2. Bocillin-FL was at 0.1 μM (0.05 μM with A. baumannii PBP1a) and beta-lactam concentrations ranged from 0-1000 μM. […] Bocillin-FL was added and the FP immediately measured for up to 60 minutes (90 minutes for E. coli PBP2). […] The beta-lactam potency was reported as the concentration of beta-lactam required to reduce the amount of PBP bound-Bocillin-FL by 50% (EC50). […] Binding assays for boronic acid PBP inhibitors were performed in an identical fashion for the respective PBPs

A further assay concerns the target T1, A. baumannii PBP2 (Acinetobacter baumannii, UniProt D0C8Z9).
T1 construct: made in house
T1 sequence (D0C8Z9 1-672): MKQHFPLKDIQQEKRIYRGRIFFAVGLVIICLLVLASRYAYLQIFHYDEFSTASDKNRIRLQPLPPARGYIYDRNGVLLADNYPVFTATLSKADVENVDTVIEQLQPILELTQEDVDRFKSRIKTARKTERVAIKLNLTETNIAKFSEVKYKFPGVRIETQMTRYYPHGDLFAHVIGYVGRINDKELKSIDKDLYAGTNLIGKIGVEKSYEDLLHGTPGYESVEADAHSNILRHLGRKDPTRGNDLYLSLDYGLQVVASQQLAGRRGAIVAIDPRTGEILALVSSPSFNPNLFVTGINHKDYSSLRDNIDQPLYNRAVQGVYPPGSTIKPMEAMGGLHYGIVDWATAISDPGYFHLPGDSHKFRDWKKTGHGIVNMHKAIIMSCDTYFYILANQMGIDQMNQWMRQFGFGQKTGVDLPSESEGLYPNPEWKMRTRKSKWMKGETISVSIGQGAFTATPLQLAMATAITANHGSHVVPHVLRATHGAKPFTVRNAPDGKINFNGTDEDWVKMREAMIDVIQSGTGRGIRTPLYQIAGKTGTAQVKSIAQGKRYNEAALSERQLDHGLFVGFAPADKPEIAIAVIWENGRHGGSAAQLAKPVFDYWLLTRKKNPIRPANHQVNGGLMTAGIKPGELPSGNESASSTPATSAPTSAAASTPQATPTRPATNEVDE
The experiment in a line: Bocillin-FL fluorescence polarization competition binding assay, A. baumannii PBP2. As to conditions: fluorescence polarization competition binding assay using Bocillin-FL; read-out: A. baumannii PBP2 Potency.
Source text: as §1, §2

In brackets after ≈: the same amount, converted by molar mass.

Chain of A. baumannii PBP1a (A0ABX6CK30 entry or part of it): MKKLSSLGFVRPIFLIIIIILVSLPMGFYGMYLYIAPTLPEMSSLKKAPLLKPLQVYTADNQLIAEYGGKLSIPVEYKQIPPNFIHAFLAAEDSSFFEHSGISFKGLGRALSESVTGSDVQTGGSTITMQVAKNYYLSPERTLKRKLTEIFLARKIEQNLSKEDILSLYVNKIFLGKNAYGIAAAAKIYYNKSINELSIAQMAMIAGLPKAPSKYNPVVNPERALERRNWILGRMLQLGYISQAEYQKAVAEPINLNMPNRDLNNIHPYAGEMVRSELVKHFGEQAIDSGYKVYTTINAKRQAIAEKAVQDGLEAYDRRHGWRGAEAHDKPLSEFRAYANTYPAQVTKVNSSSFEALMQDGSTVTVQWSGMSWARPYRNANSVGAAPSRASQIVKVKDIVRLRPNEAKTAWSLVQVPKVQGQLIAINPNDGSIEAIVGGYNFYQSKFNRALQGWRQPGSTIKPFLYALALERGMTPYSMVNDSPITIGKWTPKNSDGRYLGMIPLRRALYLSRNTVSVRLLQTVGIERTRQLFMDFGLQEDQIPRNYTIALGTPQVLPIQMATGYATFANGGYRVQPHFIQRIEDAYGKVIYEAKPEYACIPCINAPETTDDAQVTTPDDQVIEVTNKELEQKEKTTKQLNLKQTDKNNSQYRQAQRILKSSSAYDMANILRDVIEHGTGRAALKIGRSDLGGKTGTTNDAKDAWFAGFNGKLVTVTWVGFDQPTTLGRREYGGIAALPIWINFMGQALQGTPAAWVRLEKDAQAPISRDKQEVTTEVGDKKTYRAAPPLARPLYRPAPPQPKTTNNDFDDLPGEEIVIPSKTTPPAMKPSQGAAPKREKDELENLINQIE

In the case of `NCCN1CCN(C(=O)N[C@H](C(=O)N[C@H]2Cc3cccc(C(=O)O)c3OB2O)c2c(F)cc(O)cc2F)C(=O)C1=O` (single isomer, unassigned) [Example 110], the EC50 in assay [1] is more than 100 µM.

On to `CCN1CCN(C(=O)N[C@@H](C(=O)N[C@H]2Cc3cccc(C(=O)O)c3OB2O)c2ccc(C(=O)O)cc2)C(=O)C1=O` (single isomer, unassigned) [Example 124], for which the EC50 in assay [1] is less than 10 µM.

In the case of `CCN1CCN(C(=O)N[C@H](C(=O)N[C@H]2Cc3ccc(F)c(C(=O)O)c3OB2O)c2c(F)cc(O)c(O)c2Cl)C(=O)C1=O` (single isomer, unassigned) [Example 125], in assay [2], the MIC is more than 128 µg/mL. In addition, the EC50 in assay [1] was more than 100 µM.

On to `NC1(CN2CCN(C(=O)N[C@@H](C(=O)N[C@H]3Cc4ccc(F)c(C(=O)O)c4OB3O)c3cc(F)c(O)c(O)c3Cl)C(=O)C2=O)CC1` (single isomer, unassigned) [Example 133], for which the MIC in assay [2] was in the range of 8 to 16 µg/mL (≈ 12.3 to 24.5 µM). For the same compound, in assay [1], the EC50 is less than 10 µM.

Regarding `NC1(CN2CCN(C(=O)N[C@@H](C(=O)N[C@H]3Cc4ccc(F)c(C(=O)O)c4OB3O)c3c(F)cc(O)c(O)c3Cl)C(=O)C2=O)CC1` (single isomer, unassigned) [Example 134], the EC50 at A. baumannii PBP1a is more than 100 µM; on A. baumannii PBP2, 30 to 100 µM; in assay [1], less than 10 µM. Moreover, the MIC in assay [2] was 32 to 64 µg/mL (≈ 49.1 to 98.2 µM).

`NCCN1CCN(C(=O)N[C@@H](C(=O)N[C@H]2Cc3ccc(F)c(C(=O)O)c3OB2O)c2cc(F)c(O)c(O)c2Cl)C(=O)C1=O` (single isomer, unassigned) [Example 179]: the EC50 (on A. baumannii PBP1a; at A. baumannii PBP2; in assay [1]) was more than 100 µM throughout. Moreover, the MIC in assay [2] is 8 to 16 µg/mL (≈ 12.8 to 25.6 µM).

For the compound `NCCCN1CCN(C(=O)N[C@@H](C(=O)N[C@H]2Cc3ccc(F)c(C(=O)O)c3OB2O)c2cc(F)c(O)c(O)c2Cl)C(=O)C1=O` (single isomer, unassigned) [Example 180], the EC50 (on A. baumannii PBP1a; at A. baumannii PBP2; in assay [1]) was more than 100 µM throughout. Moreover, the MIC in assay [2] was in the range of 2 to 4 µg/mL (≈ 3.13 to 6.25 µM).

Consider `C[C@@H](O)[C@@H](NC(=O)N1CCN(CCNC(=O)c2c(F)cc(O)c(O)c2Cl)C(=O)C1=O)C(=O)N[C@H]1Cc2ccc(F)c(C(=O)O)c2OB1O` [Example 102, (R)-3-((2R,3R)-2-(4-(2-(2-chloro-6-fluoro-3,4-dihydroxybenzamido)ethyl)-2,3-dioxopiperazine-1-carboxamido)-3-hydroxybutanamido)-7-fluoro-2-hydroxy-3,4-dihydro-2H-benzo[e][1,2]oxaborinine-8-carboxylic acid], for which the EC50 is more than 100 µM on A. baumannii PBP1a, more than 100 µM on A. baumannii PBP2 and 30 to 100 µM in assay [1]. In assay [2], the MIC lay in the range of 32 to 64 µg/mL (≈ 45.9 to 91.7 µM).

Consider `NS(=O)(=O)Nc1cccc(C(NC(=O)N2CCN(Cc3c(F)cc(O)c(O)c3Cl)C(=O)C2=O)C(=O)N[C@H]2Cc3cccc(C(=O)O)c3OB2O)c1` (stereo partly drawn) [Example 131, (3R)-3-(2-(4-(2-chloro-6-fluoro-3,4-dihydroxybenzyl)-2,3-dioxopiperazine-1-carboxamido)-2-(3-(sulfamoylamino)phenyl)acetamido)-2-hydroxy-3,4-dihydro-2H-benzo[e][1,2]oxaborinine-8-carboxylic acid], for which the EC50 at A. baumannii PBP1a is 30 to 100 µM; on A. baumannii PBP2, 30 to 100 µM; in assay [1], less than 10 µM. In addition, the MIC in assay [2] is more than 128 µg/mL.

In the case of `NS(=O)(=O)c1cc(O)cc(C(NC(=O)N2CCN(Cc3c(F)cc(O)c(O)c3Cl)C(=O)C2=O)C(=O)N[C@H]2Cc3cccc(C(=O)O)c3OB2O)c1` (stereo partly drawn) [Example 132, (3R)-3-(2-(4-(2-chloro-6-fluoro-3,4-dihydroxybenzyl)-2,3-dioxopiperazine-1-carboxamido)-2-(3-hydroxy-5-sulfamoylphenyl)acetamido)-2-hydroxy-3,4-dihydro-2H-benzo[e][1,2]oxaborinine-8-carboxylic acid], the EC50 on A. baumannii PBP1a was 30 to 100 µM; on A. baumannii PBP2, more than 100 µM; in assay [1], less than 10 µM. Also, in assay [2], the MIC was more than 128 µg/mL.

In the case of `CCN1CCN(C(=O)NC(C(=O)N[C@H]2Cc3cccc(C(=O)O)c3OB2O)c2c(F)cc(N)cc2F)C(=O)C1=O` (stereo partly drawn) [Example 181, (3R)-3-(2-(4-amino-2,6-difluorophenyl)-2-(4-ethyl-2,3-dioxopiperazine-1-carboxamido)acetamido)-2-hydroxy-3,4-dihydro-2H-benzo[e][1,2]oxaborinine-8-carboxylic acid], the EC50 (on A. baumannii PBP1a; at A. baumannii PBP2; in assay [1]) was more than 100 µM throughout.
